Source: ChEMBL document CHEMBL3885861, “Open TG-GATES”

Species on record: Rattus norvegicus
Experiment: Open TG-GATES - Regimen: Single
Format: toxicity, organism-based, Sprague-Dawley
Design: regimen Single, gender Male, age 6 weeks
Conditions: in vivo, po, route gavage; for TP / gamma-GTP / ALP / AST / BUN / CRE / Ca / Cl / DBIL / GLC / IP / K / LDH / Na / PL / RALB / TBIL / TC / TG: tissue Plasma; for APTT / Bas / Eos / Ht / MCH / MCHC / MCV / Mono / PT / Plat / RBC / Ret / WBC / Fbg: tissue Blood; for KIDNEY_L / KIDNEY_R / KIDNEY_TOTAL: tissue Kidney; for LIVER: tissue Liver
[1] = 200 mg/kg, 3 h, dose level Middle
[2] = 200 mg/kg, 6 h, dose level Middle
[3] = 200 mg/kg, 9 h, dose level Middle
[4] = 200 mg/kg, 24 h, dose level Middle
[5] = 600 mg/kg, 3 h, dose level High
[6] = 600 mg/kg, 6 h, dose level High
[7] = 600 mg/kg, 9 h, dose level High
[8] = 600 mg/kg, 24 h, dose level High

## CC(=O)Nc1nnc(S(N)(=O)=O)s1 [ACETAZOLAMIDE]
60 mg/kg, 24 h, dose level Low
  TP: 5.5 g/dL
  gamma-GTP: 1.2 IU/L
[1]
  TERMINAL_BW: 208.6 g
  APTT: 21.4 s
  Bas: 0%
  Eos: 1%
  Ht: 42%
  MCH: 21 pg
  MCHC: 31.4%
  MCV: 66.7 fL
  Mono: 2.2%
  PT: 16.8 s
  Plat: 124.3 x10_4/uL
  RBC: 629.8 x10_4/ul
  Ret: 8.5%
  WBC: 67.2 x10_2/uL
  KIDNEY_L: 0.9 g
  KIDNEY_R: 0.9 g
  KIDNEY_TOTAL: 1.8 g
  LIVER: 9.2 g
  ALP: 1675.4 IU/L
  AST: 71.2 IU/L
  BUN: 12.2 mg/dL
  CRE: 0.2 mg/dL
  Ca: 11.1 mg/dL
  Cl: 111.2 meq/L
  DBIL: 0 mg/dL
  GLC: 186.4 mg/dL
  IP: 10.2 mg/dL
  K: 3.7 meq/L
  LDH: 191.6 IU/L
  Na: 140.8 meq/L
  PL: 143 mg/dL
  RALB: 3.4 g/dL
  TBIL: 0.012 mg/dL
  TC: 80.4 mg/dL
  TP: 6 g/dL
  gamma-GTP: 1.2 IU/L
[2]
  TERMINAL_BW: 207.7 g
  APTT: 22.7 s
  Bas: 0%
  Eos: 1%
  Fbg: 356 mg/dL
  Ht: 42%
  MCH: 21.2 pg
  MCHC: 31.2%
  MCV: 68 fL
  Mono: 2.8%
  PT: 16.9 s
  Plat: 108.6 x10_4/uL
  RBC: 617.6 x10_4/ul
  Ret: 8.8%
  WBC: 85 x10_2/uL
  KIDNEY_L: 1 g
  KIDNEY_R: 1 g
  KIDNEY_TOTAL: 2 g
  LIVER: 8.8 g
  ALP: 1625.8 IU/L
  AST: 71.2 IU/L
  BUN: 11.6 mg/dL
  CRE: 0.2 mg/dL
  Ca: 11.1 mg/dL
  Cl: 113.6 meq/L
  DBIL: 0 mg/dL
  GLC: 186.8 mg/dL
  IP: 9.7 mg/dL
  K: 4 meq/L
  LDH: 180.8 IU/L
  Na: 140 meq/L
  PL: 135.8 mg/dL
  RALB: 3.4 g/dL
  TBIL: 0.024 mg/dL
  TC: 84.2 mg/dL
  TG: 21.4 mg/dL
  TP: 6 g/dL
  gamma-GTP: 1.6 IU/L
[3]
  TERMINAL_BW: 200 g
  APTT: 22.9 s
  Bas: 0%
  Eos: 0.8%
  Fbg: 349.4 mg/dL
  Ht: 43.2%
  MCH: 20.8 pg
  MCHC: 31%
  MCV: 67.3 fL
  Mono: 1.8%
  PT: 16.3 s
  Plat: 127.1 x10_4/uL
  RBC: 644 x10_4/ul
  Ret: 8.8%
  WBC: 68.1 x10_2/uL
  KIDNEY_L: 0.9 g
  KIDNEY_R: 1 g
  KIDNEY_TOTAL: 1.9 g
  LIVER: 7.8 g
  ALP: 1777.2 IU/L
  AST: 61.6 IU/L
  BUN: 13.2 mg/dL
  CRE: 0.2 mg/dL
  Ca: 11 mg/dL
  Cl: 114.4 meq/L
  DBIL: 0 mg/dL
  GLC: 175 mg/dL
  IP: 9.7 mg/dL
  K: 3.8 meq/L
  LDH: 182.6 IU/L
  Na: 139 meq/L
  PL: 122.4 mg/dL
  RALB: 3.5 g/dL
  TBIL: 0.026 mg/dL
  TC: 72.4 mg/dL
  TG: 13.8 mg/dL
  TP: 6.1 g/dL
  gamma-GTP: 1.4 IU/L
[4]
  TERMINAL_BW: 205.9 g
  APTT: 21.2 s
  Bas: 0%
  Eos: 1%
  Fbg: 349 mg/dL
  Ht: 40.8%
  MCH: 20.9 pg
  MCV: 62.9 fL
  Mono: 2%
  PT: 16.8 s
  Plat: 132.1 x10_4/uL
  RBC: 649.2 x10_4/ul
  Ret: 8.1%
  WBC: 101.2 x10_2/uL
  KIDNEY_L: 1 g
  KIDNEY_R: 1 g
  KIDNEY_TOTAL: 1.9 g
  LIVER: 8.5 g
  ALP: 1929.2 IU/L
  AST: 53.6 IU/L
  BUN: 21.6 mg/dL
  CRE: 0.2 mg/dL
  Ca: 10.8 mg/dL
  Cl: 114.4 meq/L
  DBIL: 0 mg/dL
  GLC: 189.6 mg/dL
  IP: 7.7 mg/dL
  K: 3.6 meq/L
  LDH: 222.4 IU/L
  Na: 142.2 meq/L
  PL: 136.2 mg/dL
  RALB: 3.2 g/dL
  TBIL: 0.016 mg/dL
  TC: 86.4 mg/dL
  TG: 44.6 mg/dL
  TP: 5.7 g/dL
  gamma-GTP: 1.4 IU/L
[5]
  TERMINAL_BW: 215.3 g
  APTT: 22.2 s
  Bas: 0%
  Eos: 1.2%
  Fbg: 336.8 mg/dL
  Ht: 42.8%
  MCH: 21.1 pg
  MCHC: 31.1%
  MCV: 67.9 fL
  Mono: 2%
  Plat: 114.9 x10_4/uL
  RBC: 630.4 x10_4/ul
  Ret: 8.1%
  WBC: 60.8 x10_2/uL
  KIDNEY_L: 0.9 g
  KIDNEY_R: 1 g
  KIDNEY_TOTAL: 1.9 g
  LIVER: 9.6 g
  ALP: 1769.8 IU/L
  AST: 76 IU/L
  BUN: 12.2 mg/dL
  CRE: 0.2 mg/dL
  Ca: 11.1 mg/dL
  Cl: 112 meq/L
  DBIL: 0 mg/dL
  GLC: 188.6 mg/dL
  IP: 10.5 mg/dL
  K: 4 meq/L
  LDH: 209.8 IU/L
  Na: 140.2 meq/L
  PL: 140.4 mg/dL
  RALB: 3.3 g/dL
  TBIL: 0.008 mg/dL
  TG: 24.8 mg/dL
  TP: 5.9 g/dL
  gamma-GTP: 1.2 IU/L
[6]
  TERMINAL_BW: 204.7 g
  APTT: 23.6 s
  Bas: 0%
  Eos: 1.4%
  Fbg: 340.8 mg/dL
  Ht: 42.8%
  MCH: 21.2 pg
  MCHC: 31.1%
  MCV: 68 fL
  Mono: 2.4%
  PT: 16.8 s
  Plat: 120.2 x10_4/uL
  RBC: 628.2 x10_4/ul
  Ret: 8.5%
  WBC: 85.2 x10_2/uL
  KIDNEY_L: 0.9 g
  KIDNEY_R: 1 g
  KIDNEY_TOTAL: 1.9 g
  LIVER: 8.3 g
  ALP: 1569.2 IU/L
  AST: 69 IU/L
  BUN: 10.6 mg/dL
  CRE: 0.2 mg/dL
  Ca: 11.1 mg/dL
  Cl: 113 meq/L
  DBIL: 0 mg/dL
  GLC: 185.2 mg/dL
  IP: 10.1 mg/dL
  K: 3.8 meq/L
  LDH: 205.4 IU/L
  Na: 138.4 meq/L
  PL: 149.8 mg/dL
  RALB: 3.4 g/dL
  TBIL: 0.016 mg/dL
  TC: 90.4 mg/dL
  TG: 23 mg/dL
  TP: 6 g/dL
  gamma-GTP: 1.2 IU/L
[7]
  TERMINAL_BW: 201.6 g
  APTT: 24 s
  Bas: 0%
  Eos: 0.8%
  Fbg: 344.6 mg/dL
  Ht: 43%
  MCHC: 30.9%
  MCV: 66.6 fL
  Mono: 2.2%
  PT: 16 s
  Plat: 123.6 x10_4/uL
  RBC: 645.4 x10_4/ul
  Ret: 8.8%
  WBC: 51.5 x10_2/uL
  KIDNEY_L: 0.9 g
  KIDNEY_R: 0.9 g
  KIDNEY_TOTAL: 1.9 g
  LIVER: 7.7 g
  ALP: 1753.6 IU/L
  AST: 59 IU/L
  BUN: 13.4 mg/dL
  CRE: 0.2 mg/dL
  Ca: 11 mg/dL
  Cl: 114.2 meq/L
  DBIL: 0 mg/dL
  GLC: 172.6 mg/dL
  IP: 10 mg/dL
  K: 3.8 meq/L
  LDH: 176.4 IU/L
  Na: 138.6 meq/L
  PL: 127.8 mg/dL
  RALB: 3.4 g/dL
  TBIL: 0.02 mg/dL
  TC: 85 mg/dL
  TG: 11.4 mg/dL
  TP: 6.1 g/dL
  gamma-GTP: 1.2 IU/L
[8]
  TERMINAL_BW: 199.5 g
  APTT: 22.2 s
  Bas: 0%
  Eos: 1%
  Fbg: 359.2 mg/dL
  Ht: 41.1%
  MCH: 20.3 pg
  MCHC: 32.8%
  MCV: 61.9 fL
  Mono: 2.2%
  PT: 16.9 s
  Plat: 112.5 x10_4/uL
  RBC: 663.8 x10_4/ul
  Ret: 8%
  WBC: 74.5 x10_2/uL
  KIDNEY_L: 0.9 g
  KIDNEY_R: 0.9 g
  KIDNEY_TOTAL: 1.9 g
  LIVER: 7.9 g
  ALP: 1549.4 IU/L
  AST: 49.6 IU/L
  BUN: 18.8 mg/dL
  CRE: 0.2 mg/dL
  Ca: 10.7 mg/dL
  Cl: 116.8 meq/L
  DBIL: 0 mg/dL
  IP: 8.2 mg/dL
  K: 3.8 meq/L
  LDH: 205.2 IU/L
  Na: 140.6 meq/L
  PL: 137.4 mg/dL
  RALB: 3.5 g/dL
  TBIL: 0.016 mg/dL
  TC: 89.6 mg/dL
  TG: 26.8 mg/dL
  TP: 6 g/dL
  gamma-GTP: 1.2 IU/L
